Structures can show the parent of a compound that is named as a salt. Where two headings read alike, the source gives them in different places.

Series [1] in a line: Enterolignans and conjugates in plasma and milk of sheep fed flaxseed-enriched diets (UPLC-QTOF-MS). Format: in vivo. As to conditions: qualitative. The procedure: Eighteen lactating […] (3-4 months in lactation and weighing 66-105 kg) were used and milked twice daily. The animals were parasite-free, and drinking water was available ad libitum. The experimental design was performed with animals stratified according to milk production and number of days post-partum, and then randomly distributed in the experimental groups. The animals were divided into 3 diet groups of 6 animals each. One group of sheep was fed a standard diet, a second group was fed a lignan-enriched diet containing 10% whole flaxseed (Nutricor SL, Leon, Spain) for 2 weeks, and a third group was fed a lignan-enriched diet containing 15% whole flaxseed (Nutricor SL) also for 2 weeks (diet composition is shown in Table 1). Flaxseed amounts and duration of treatment were chosen based on previous studies on cows. Whole flaxseed composition included 20.2% of crude protein, 13.1% of crude fiber and 28.5% of ether extract. All sheep were fed ad libitum twice per day after each milking (09.00 and 18.00 h). Feed intake was not affected by the different experimental diets. […] [29]. The dry residue was dissolved in methanol and filtered (0.22 μm) prior to injection into the ultra-performance liquid chromatography quadrupole time-of-flight mass spectrometry (UPLC-QTOF-MS) equipment. Analyses were developed using an Agilent 1290 Infinity LC system coupled to a 6550 Accurate-Mass QTOF (Agilent Technologies, Waldbronn, Germany) and using an electrospray interface (Jet Stream Technology). Analytical conditions were as previously described with some modifications. Briefly, 5 μL of sample was injected onto a reverse phase Poroshell 120 EC-C18 column (3 × 100 mm, 2.7 μm) (Agilent Technologies) operating at 30 °C. […] The electrospray interface parameters were as follows: gas temperature, 280 °C; drying gas flow, 9 L/min; nebulizer pressure, 35 psi; sheath gas temperature, 400 °C; sheath gas flow, 12 L/min. Spectra were acquired in the m/z range from 100 to 1100 in negative mode and fragmentor voltage was 100 V. Data were processed using Mass Hunter Qualitative Analysis software (version B.06.00 Agilent Technologies). A target screening strategy was applied to plasma and milk samples for the qualitative screening of possible enterolignan-related metabolites. A list of target compounds (60 possible metabolites) covering different phase I and phase II metabolites of parent compound and microbial metabolites was sought in all the samples after MS full-acquisition. Screening was based on mass filtering at the exact mass of the studied compound using narrow mass extraction windows (0.01 m/z). Identification was possible from the valuable information given in QTOF-MS acquisition mode which provides possible molecular formulae for the compounds based on accurate mass and isotopic pattern (Table 2). Additionally, a targeted MS/MS experiment offered fragmentation information for greater reliability in the compound identification process. When possible, direct comparison with authentic standards was performed. Quantification of enterolactone and enterodiol was determined by interpolation in the calibration curve obtained from their own available standards. These metabolites were quantified in MS by peak area integration of their extracted ion chromatograms. Calibration curves were linear from the limit of quantification (LOQ) to 500 nmol/L. […] In the case of conjugated metabolites accurate quantification was not possible due to the absence of available standards and so only qualitative results are provided.

A short description of series [2]: Plasma pharmacokinetics of danofloxacin after i.m. administration to lactating sheep fed control or flaxseed-enriched diets. Format: in vivo. As to conditions: female, Assaf, im, 1.25 mg/kg, 1.25 mg/kg i.m., mean ± SD; for AUC(0-inf) / Cmax / MRT / Tmax: n = 6; for AUC(0-t): n = 6, read-out: AUC 0–24. As to the method: (§1) Eighteen lactating […] (3-4 months in lactation and weighing 66-105 kg) were used and milked twice daily. The animals were parasite-free, and drinking water was available ad libitum. The experimental design was performed with animals stratified according to milk production and number of days post-partum, and then randomly distributed in the experimental groups. The animals were divided into 3 diet groups of 6 animals each. One group of sheep was fed a standard diet, a second group was fed a lignan-enriched diet containing 10% whole flaxseed (Nutricor SL, Leon, Spain) for 2 weeks, and a third group was fed a lignan-enriched diet containing 15% whole flaxseed (Nutricor SL) also for 2 weeks (diet composition is shown in Table 1). Flaxseed amounts and duration of treatment were chosen based on previous studies on cows. Whole flaxseed composition included 20.2% of crude protein, 13.1% of crude fiber and 28.5% of ether extract. All sheep were fed ad libitum twice per day after each milking (09.00 and 18.00 h). Feed intake was not affected by the different experimental diets. After 2 weeks on the experimental diets, animals in all groups received a single therapeutic dose (1.25 mg/kg, i.m.) of danofloxacin (Advocin 2.5%, Pfizer, Cedex, France). Blood samples (5 mL) were collected from the jugular vein in commercial blood collection tubes (Vacutainer, 10 mL; […] The pharmacokinetic schedule was based on previous studies from our group. […] A complete evacuation of the udder was carried out at each sampling to avoid any dilution effect. Samples were stored at - 20 °C until analysis. Conditions for HPLC analysis of danofloxacin concentrations in plasma and milk were modified according to previously published methods. […] To each 100 μL aliquot of sample, 600 μL of chloroform was added. […] The residue was reconstituted in 100 μL of methanol and injected into the HPLC system. The system consisted of a Waters 600 pump, a Waters 717 plus autosampler, and a Waters 486 fluorescence detector (Waters Corporation, Milford, MA). […] The mobile phase consisted of 25 mM orthophosphoric acid supplemented with 0.1% triethylamine (pH 3.0): acetonitrile (80:20 v/v) at a flow rate of 1.6 mL/min. Sample detection was performed by fluorescence detection at 338 nm (excitation) and 425 nm (emission). Integration was carried out using MILLENNIUM 32 software (Waters). […] Correlation coefficients (r) for danofloxacin ranged between 0.998 and 0.984 for the calibration curves in plasma and milk curves respectively. LOQ were 1.9 ng/mL for sheep plasma and 19 ng/mL for sheep milk. Peak concentration (Cmax) and time-peak concentrations (Tmax) were read from the plotted concentration-time curve for each animal. The area under the plasma concentration-time curves (AUC) was calculated using the linear trapezoidal rule. Mean residence time (MRT) was calculated by the linear trapezoidal rule with extrapolation to time infinity, using the formula: MRT = AUMC/AUC, where AUMC is the mean area under the first moment curve. These calculations were made with a computer program (PK solution 2.0, Summit Research Services, Ashland, OH) and determined by non-compartmental analyses.

Series [3] is described as follows: Milk pharmacokinetics (secretion into milk) of danofloxacin after i.m. administration to lactating sheep fed control or flaxseed-enriched diets. Format: in vivo. The note with it: 1.25 mg/kg i.m.; for Kp / AUC(0-t) / AUC(0-inf) / Cmax / MRT / Tmax: female, Assaf, sheep, 1.25 mg/kg, mean ± SD, n = 6; for Kp: milk and plasma, intramuscular, read-out: AUC 0–24 milk/plasma; for AUC(0-t) / AUC(0-inf) / Cmax / MRT / Tmax: milk, im; for AUC(0-t): read-out: AUC 0–24. The procedure: as §1

For series [4] the following is noted: effect of isoflavones present in soy; cited from earlier work.
The mark [5] stands for this setting: sheep fed flaxseed-enriched diets vs. control diet.

In the case of `O=C(O)[C@H]1O[C@@H](Oc2cccc(C[C@@H](CO)[C@H](CO)Cc3cccc(O)c3)c2)[C@H](O)[C@@H](O)[C@@H]1O` [Enterodiol- glucuronide], the “Localization (matrix in which the compound was identified)” value (shortened to “Localization”) in series [1] is reported as “Plasma”.

For the compound `O=S(=O)(O)Oc1cccc(C[C@@H](CO)[C@H](CO)Cc2cccc(O)c2)c1` [Enterodiol- sulfate], the “Localization” value in series [1] was “Plasma”.

With `OC[C@H](Cc1cccc(O)c1)[C@H](CO)Cc1cccc(O)c1` [Enterodiol], in series [1], the “Localization” value is listed as “Plasma, milk”.

Take `O=C1OC[C@H](Cc2cccc(O)c2)[C@H]1Cc1cccc(O)c1` [Enterolactone]: the “Localization” value in series [1] is on record as “Plasma, milk”.

With `CN1C[C@@H]2C[C@H]1CN2c1cc2c(cc1F)c(=O)c(C(=O)O)cn2C1CC1` [danofloxacin], in series [2] (control diet), the AUC(0-inf) was 1750 ± 380 ng·h/mL, the peak level (Cmax) was 310 ± 50 ng/mL, the MRT stood at 4.22 ± 0.73 h and the Tmax came to 1.5 ± 0.5 h. For the same compound, the AUC(0-t) in series [2] (control diet) worked out at 1740 ± 370 ng·h/mL. For the same compound, in series [2] (flaxseed 10% diet), the AUC(0-inf) turned out to be 1930 ± 250 ng·h/mL, the highest level (Cmax) was 310 ± 60 ng/mL, the MRT came to 4.77 ± 0.49 h and the Tmax turned out to be 1.5 ± 0.5 h. In series [2] (flaxseed 10% diet), the AUC(0-t) came out at 1920 ± 260 ng·h/mL. In series [2] (flaxseed 15% diet), the AUC(0-inf) was found to be 1810 ± 150 ng·h/mL, the Cmax worked out at 300 ± 40 ng/mL, the MRT came out at 4.95 ± 0.39 h and the Tmax came out at 1.16 ± 0.37 h. Also, in series [2] (flaxseed 15% diet), the AUC(0-t) turned out to be 1790 ± 150 ng·h/mL. For the same compound, in series [3] (control diet), the Kp was determined as 11 ± 1.95, the AUC(0-t) came out at 19200 ± 5030 ng·h/mL, the AUC(0-inf) was determined as 19400 ± 5120 ng·h/mL and the Cmax is 2950 ± 740 ng/mL. In series [3] (control diet), the mean residence time (MRT) amounted to 5.35 ± 0.87 h and the Tmax was 2.66 ± 0.94 h. In series [3] (flaxseed 10% diet), the Kp is 7.81 ± 2.08, the AUC(0-t) was found to be 14600 ± 1790 ng·h/mL, the AUC(0-inf) was 14900 ± 1860 ng·h/mL and the Cmax is 2200 ± 350 ng/mL. For the same compound, in series [3] (flaxseed 10% diet), the MRT was 5.25 ± 0.35 h and the Tmax turned out to be 3 ± 1 h. In addition, in series [3] (flaxseed 15% diet), the Kp came to 7.57 ± 2.1, the AUC(0-t) came to 13400 ± 3070 ng·h/mL, the AUC(0-inf) came to 13700 ± 3130 ng·h/mL and the maximum concentration (Cmax) amounted to 1840 ± 440 ng/mL. Moreover, in series [3] (flaxseed 15% diet), the MRT came out at 5.54 ± 0.29 h and the Tmax came to 2.66 ± 0.94 h. Moreover, the “Reduction of milk Cmax” value in series [3] (group fed 15% flaxseed vs. control group) is recorded as roughly 40%. Moreover, the “Reduction of secretion into milk / milk residue” value in series [3] (sheep fed flaxseed diet vs. control) was 25–30%. For the same compound, in series [3] (setting [5]), the “Reduction of AUC0–24 milk-to-plasma ratio” value is listed as 25–30%, the “Reduction of milk AUC0–24” value is reported as 25–30% and the “Reduction of milk Cmax” value is 25–30%. Also, the “Reduction of danofloxacin residue in ovine milk” value in series [4] is reported as 50%.

Enterolactone-glucuronide: the “Localization” value in series [1] is reported as “Plasma”.

Turning to Enterolactone-sulfate, in series [1], the “Localization” value is given as “Plasma”.

As usually defined, the AUC(0-inf) is the area under the concentration-time curve extrapolated to infinity. High values mean more exposure, low ones less exposure. The term Cmax denotes the highest concentration seen after dosing. What is called MRT is a mean duration of stay, worked out from the concentration-time curve. What is called Tmax is the time at which the peak concentration occurs.

Values taken from PMC5769330, “Flaxseed-enriched diets change milk concentration of the antimicrobial danofloxacin in sheep” (BMC Veterinary Research, 2018).
